The values that follow come from patent publication US11253535B2, “Carboline derivatives or phosphorous derivatives for the treatment of muscular myopathies and traumatic injuries to muscles” (Centre National de la Recherche Scientifique (C.N.R.S), priority 2015, dated 2022).

Assay [1] deals with DMD myotubes. Description: Spontaneous calcium activity (calcium waves) in DMD patient myotubes, Fluo-4 AM, confocal microscopy. The format is cell-based, human. Conditions: for reduction in the amplitude of the calcium waves (oscillations): 100 μM; for reduction in the number of myotubes with spontaneous calcium activity: DMD myotubes preincubated, 100 μM (FIG. 5D, 8D). From the text:
(A) Characterization of spontaneous calcium waves in DMD myotubes. Healthy myotubes mostly show low activity (13% of myotubes), while 49% of untreated DMD myotubes show significant spontaneous calcium activity. The amplitude of calcium oscillations in untreated DMD myotubes is increased by 60% compared with healthy myotubes. (B) Examples of trace recordings of a representative region of interest in myotubes and DMDs. (C) Amplitude of spontaneous calcium oscillations in DMD myotube cultures in the presence of modulators of the CD38 enzyme pathway. […] Similarly, 8-Bromo-cADPR (cADPR antagonist, 100 μM, n=48) and NED-19 (NAADP antagonist, 100 μM, n=167) reduce by 40% the amplitude of calcium oscillations in DMD myotubes. […] The t-test was used with a significance level set at 0.05, with a *P<0.05; **P<0.01, ***P<0.001, n=cell number.
(A) DMD myotubes loaded with a calcium probe (Fluo 4). Examples of trace recordings of a representative region of interest in control DMD myotubes (B) and treated for 30 min with NAADP (100 μM) (C). […] The chi square (proportion of active cells) and t-test (mean peak amplitude) were used with a significance level set at 0.05, with a *P<0.05 ***P<0.001.
In parallel with mouse cardiomyocyte studies, two lines of human skeletal myotubes (a patient cell line with DMD and a control line) were used. Human myotubes are particularly suitable for evaluating a pharmacological tool from a therapy perspective. The inventors first tested the CZ-27, the NED-19 antagonist of NAADP (the most efficient messenger produced by CD38), and 8-bromo-cADP-ribose (a cADP-ribose antagonist produced by CD38. The cells were loaded with Fluo-4 AM and recorded by confocal microscopy.
The amplitude of the calcium waves was reduced by 40% (see FIG. 5A) compared to that of the untreated DMD myotubes. […] A 40% reduction in the amplitude of the calcium waves is also observed when the cells are treated with 100 μM of 8-Bromo-cADPR or NED-19 (see FIG. 5C). When cultures of DMD myotubes were preincubated with NED-19, the number of myotubes with spontaneous calcium activity was reduced in a dose-dependent manner for concentrations of 2 to 300 μM (60% to 100 μM reduction) (see FIG. 5D). In addition, when cultures of DMD myotubes were preincubated with NAADP at 100 μM, the number of myotubes with spontaneous calcium activity was reduced (75% reduction with 100 μM NAADP) (see FIG. 8D).

Assay [2] deals with mdx mouse cardiomyocytes. Description: Spontaneous calcium activity (spikes and calcium waves) of mdx mouse cardiomyocytes. Type of assay: cell-based. An excerpt: FIG. 4: Frequency of spontaneous spikes and calcium waves in WT, mdx and mdx/CD38^−/− mouse cardiomyocytes. 1-way-ANOVA test with a Bonferroni correction. Significance level set at 0.05, with a *P<0.05; **P<0.01, ***P<0.001. (A) The spontaneous calcium activity of cardiomyocytes (calcium spikes and waves) of the mdx/CD38^−/− mouse is reduced by 80% compared to the values of mdx mice. (B) The application of the CD38 CZ-27 antagonist to mdx mouse cardiomyocytes reduces the frequency of spikes by about 70%.
Evaluation of the Spontaneous Calcium Activity of Mouse Cardiomyocytes:
In the mdx cardiomyocyte, it was shown that the calcium reserves of the sarcoplasmic reticulum were reduced, probably due to Ca^2+ leakage through RyRs that are abnormally sensitized.
In order to study the impact of the absence of CD38 on these parameters, the different parameters of spontaneous spike activity and calcium waves were studied. […] The increased frequency of these spontaneous calcium events may lead to arrhythmias (when they spread to the whole heart tissue) as well as to a long-term cardiac hypertrophy associated with a change in the Ca^2+-dependent gene expression.
The protective effect of the CD38 deletion in mice was then observed by comparing cardiomyocytes of the double-mutant model with cardiomyocytes of mdx mice. The spontaneous calcium activity of mdx/CD38^−/− cardiomyocytes is very small compared to mdx (spikes and calcium waves, see FIG. 4A). […] CD38 deletion in mdx/CD38^−/− favor its protective role in DMD, with the reversal of many deleterious parameters in mdx mice (spontaneous calcium spikes and waves, sensitization of RyRs).

[3] abbreviates: DMD myotubes, vs untreated DMD myotubes (FIG. 5C).

In the case of `N=c1c2nc(Br)n3c2ncn1[C@H]1O[C@H](COP(=O)(O)OP(=O)(O)OC[C@H]2O[C@@H]3C(O)C2O)C(O)C1O` (some centres unmarked) [8-Bromo-cADPR, 8-bromo adenosine diphosphate cyclic ribose], the “reduction in the amplitude of the calcium waves (oscillations)” value in assay [1] (setting [3]) is listed as 40%.

Turning to `CCCCOP(=O)(O)OC[C@@H]1O[C@H]([n+]2cccc(C(N)=O)c2)C(F)C1O` (stereo partly drawn) [CZ-27, 2′-deoxy-2′-fluoro-β-nicotinamide arabinofuranoside-5′-(n-butyl) phosphate], in assay [1] (DMD myotubes (FIG. 5C)), the “amplitude of spontaneous calcium oscillations” value was “strongly reduces”. In assay [1] (DMD myotubes preincubated with 10, 50 and 100 μM, vs untreated DMD myotubes (FIG. 5C)), the “reduction in the amplitude of the calcium waves, dose-dependent” value is “up to 80%”. Further, the “frequency of spontaneous calcium spikes” value in assay [2] (mdx mouse cardiomyocytes (FIG. 4B)) was “reduction in spikes frequency”. In assay [2] (mdx mouse cardiomyocytes, application of the compound (FIG. 4B)), the “reduction of the frequency of spontaneous calcium spikes” value is recorded as “about 70%”.

With `Nc1ncnc2c1ncn2[C@@H]1O[C@H](COP(=O)(O)OP(=O)(O)OC[C@H]2O[C@@H]([n+]3cccc(C(=O)[O-])c3)[C@H](O)[C@@H]2O)[C@@H](O)[C@H]1OP(=O)(O)O` [NAADP, nicotinic acid adenine dinucleotide phosphate], the “reduction in the number of myotubes with spontaneous calcium activity” value in assay [1] stood at 75%. Also, the “percentage of cells exhibiting spontaneous calcium activity” value in assay [1] (DMD myotubes treated 30 min, 100 μM (FIG. 8D)) was “greatly reduced”. The “amplitude of the spontaneous calcium oscillations” value in assay [1] (DMD myotubes treated 30 min, 100 μM (FIG. 8E)) is “strongly reduced”.

As for `COc1ccc([C@H]2N[C@H](C(=O)O)Cc3c2[nH]c2ccccc32)cc1CN1CCN(c2ccccc2F)CC1` [NED-19, (1R, 3S)-1-[3-[[4-(2-fluorophenyl)piperazin-1-yl]methyl]-4-methoxyphenyl]-2,3,4,9-tetrahydro-1H-pyrido[3,4-b]indole-3-carboxylic acid], the “reduction in the number of myotubes with spontaneous calcium activity” value in assay [1] is 60%. For the same compound, the “reduction in the amplitude of the calcium waves (oscillations)” value in assay [1] (setting [3]) amounted to 40%. In addition, in assay [1] (DMD myotubes, 2-300 μM (FIG. 5D)), the “percentage of cells with spontaneous calcium activity” value is on record as “strongly reduced dose-dependently”. For the same compound, the “reduction in spontaneous calcium wave activity” value in assay [2] (mdx mouse cardiomyocytes (FIG. 4C)) is “about 90%”. In addition, in assay [2] (mdx mouse cardiomyocytes incubated with compound (not shown)), the “number of cardiomyocytes exhibiting spontaneous calcium activity” value is listed as “significant reduction”. For the same compound, the “frequency of spontaneous calcium waves” value in assay [2] (mdx mouse cardiomyocytes, rare cases of spontaneous activity in presence of compound (FIG. 4C)) is “greatly reduced”.
